The values that follow come from ChEMBL document CHEMBL1201862, “PubChem BioAssay data set” (2004).

Each structure is given as a SMILES string.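 Growth conditions: 96-well plates. Treatment: test compound, 48 hours, 5 concentrations. Analysis: linear interpolation between bracketing concentrations; unreached endpoints set to highest concentration. GI50 = concentration required for 50% inhibition of growth.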 Calls of active or inactive are those of the source. Cut-off read from the data, not from the text of the source: active = GI50 up to about 1.1 µM and inactive = higher.

Holding throughout (test): NCI-60 cell line screen, 48 h
Assay [1] relates to A498.
For assay [2], the system named is A549.
Assay [3] deals with CCRF-CEM.
For assay [4], the system named is COLO 205.
For assay [5], the system named is DU-145.
In assay [6] the test system is HCC 2998.
For assay [7], the system named is HCT-15.
In assay [8] the test system is HL-60.
For assay [9], the system named is HOP-62.
Assay [10] concerns IGROV-1.
Assay [11] relates to MCF7.
The test system of assay [12] is Malme-3M.
The test system of assay [13] is NCI/ADR-RES.
Assay [14] has as its system SK-MEL-28.
Assay [15] relates to SK-MEL-2.
Assay [16] has as its system SN12C.
The subject of assay [17] is SR.
Assay [18] concerns SW-620.
Assay [19] has as its system UACC-62.
In assay [20] the test system is UO-31.

Turning to `O=C1c2ccccc2C(=O)[C@@]23O[C@@]12C1(Oc2cccc4cccc(c24)O1)[C@@H]1O[C@@H]1[C@@H]3O`, the GI50 was 26.9 µM (inactive) in assay [1]; 18.4 µM (inactive) in assay [2]; 1.76 µM (inactive) in assay [3]; 9.91 µM (inactive) in assay [4]; 14.6 µM (inactive) in assay [5]; 6.17 µM (inactive) in assay [6]. Besides, the GI50 was 5.01 µM in assay [7]; 1.66 µM (inactive) in assay [8]; 12.6 µM (inactive) in [9]; 13.6 µM (inactive) in assay [10]; 3.66 µM (inactive) in [11]; 13.4 µM (inactive) in assay [12]. Moreover, the GI50 was 5.05 µM (inactive) in assay [13]; 20.6 µM (inactive) in assay [14]; 19.2 µM (inactive) in assay [15]; 11.6 µM (inactive) in [16]; 1.43 µM (inactive) in [17]; 6.93 µM (inactive) in assay [18]. Also, the GI50 is 14.2 µM (inactive) in [19] and 9.18 µM (inactive) in assay [20].

Regarding `Cc1cc(N(CCOS(C)(=O)=O)CCOS(C)(=O)=O)ccc1/C=N/c1ccc(-c2nc(Cc3ccccc3)sc2C)cc1`, the GI50 in assay [1] was 1.55 µM (inactive); in [2] it was 1.33 µM (inactive); in [3] it was 0.471 µM (active); in [4] it was 1.43 µM (inactive); in [5] it was 0.834 µM (active); in assay [6] it was 3.77 µM (inactive). For the same compound, the GI50 in [7] was 11.2 µM; in assay [8] it was 1.17 µM (inactive); in assay [9], 1.75 µM (inactive); in [10], 10.7 µM (inactive); in assay [11], 3.52 µM (inactive); in [12] it was 11.4 µM (inactive). Moreover, the GI50 in assay [13] was 10.6 µM (inactive); in [14], 14.2 µM (inactive); in [15], 15.3 µM (inactive); in assay [16] it was 5.4 µM (inactive); in assay [17], 1.32 µM (inactive); in [18], 8.57 µM (inactive). The GI50 in assay [19] is 1.47 µM (inactive); in assay [20], 3.71 µM (inactive).

For the compound `N#CC(C(=O)/C(=N/Nc1nc(S)nn1N)C(C#N)c1ccccc1)c1ccccc1` (stereo not given), the GI50 in [1], in assay [2], in [3], in assay [4], in assay [5] and in assay [6] was > 100 µM (inactive) in each case. In addition, the GI50 was more than 100 µM in assay [7]; > 100 µM (inactive) in assay [8]; > 100 µM (inactive) in [9]; > 100 µM (inactive) in assay [10]; > 100 µM (inactive) in assay [11]; > 100 µM (inactive) in assay [12]. In addition, the GI50 in assay [13], in assay [14], in assay [15], in assay [16], in [17] and in assay [18] was > 100 µM (inactive) each time. The GI50 in assay [19] and in [20] was > 100 µM (inactive) throughout.

As to `CCOC(=O)NC(Nc1ccc(F)cc1F)(C(F)(F)F)C(F)(F)F`, the GI50 in [1], in [2], in [3], in assay [4], in [5] and in [6] was > 100 µM (inactive) in each case. For the same compound, the GI50 in assay [7] was more than 100 µM; in assay [8], > 100 µM (inactive); in assay [9] it was > 100 µM (inactive); in assay [10] it was > 100 µM (inactive); in [11], > 100 µM (inactive); in assay [12] it was > 100 µM (inactive). Also, the GI50 in assay [13], in assay [14], in assay [15], in assay [16], in assay [17] and in [18] was > 100 µM (inactive) each time. Besides, the GI50 in assay [19] and in assay [20] was > 100 µM (inactive) throughout.

`COc1ccc2c(c1)c(=O)c1c(NCCCN(C)C)ccc3ncn2c31`: the GI50 is 11.2 µM (inactive) in [1]; 1.19 µM (inactive) in assay [2]; 1.61 µM (inactive) in [3]; 2.8 µM (inactive) in assay [4]; 4.66 µM (inactive) in [5]; 3.05 µM (inactive) in assay [6]. Also, the GI50 in assay [7] was 1.44 µM; in assay [8], 4.42 µM (inactive); in assay [9], 0.783 µM (active); in assay [10], 3.5 µM (inactive); in [11], 0.714 µM (active); in assay [12], 11.6 µM (inactive). Further, the GI50 in assay [13] was 0.832 µM (active); in [14], 13.2 µM (inactive); in [15] it was 14.2 µM (inactive); in [16] it was 1.72 µM (inactive); in [17] it was 2.19 µM (inactive); in [18], 1.01 µM (active). Also, the GI50 in [19] was 11.4 µM (inactive); in assay [20], 2.62 µM (inactive).

Take `C[S+](C)CC(=O)c1ccc2c(c1)Sc1ccccc1O2`: the GI50 in assay [1] was 8.41 µM (inactive); in assay [2] it was 5.68 µM (inactive); in [3], 5.27 µM (inactive); in assay [4], 1.02 µM (active); in assay [5] it was 4.1 µM (inactive); in assay [6] it was 2.64 µM (inactive). For the same compound, the GI50 was 2.47 µM in assay [7]; 1.61 µM (inactive) in assay [8]; 13.2 µM (inactive) in [9]; 2.75 µM (inactive) in assay [10]; 1.7 µM (inactive) in assay [11]; 3.45 µM (inactive) in [12]. The GI50 was 6.55 µM (inactive) in assay [13]; 7.89 µM (inactive) in [14]; 3.4 µM (inactive) in assay [15]; 6.34 µM (inactive) in assay [16]; 1.43 µM (inactive) in assay [17]; 2.33 µM (inactive) in assay [18]. Also, the results for the GI50 in assay [19] and in assay [20] were 3.91 µM (inactive) and 3.08 µM (inactive), respectively.

Consider `COCN1C(=O)[C@@H]2C[C@@H](O)CN2C(=O)c2ccccc21`, for which the GI50 in assay [1], in assay [2], in [3], in [4], in [5] and in assay [6] was > 100 µM (inactive) each time. The GI50 is more than 100 µM in [7]; 60.5 µM (inactive) in assay [8]; > 100 µM (inactive) in [9]; > 100 µM (inactive) in assay [10]; > 100 µM (inactive) in assay [11]; > 100 µM (inactive) in assay [12]. Further, the GI50 in assay [13], in assay [14], in assay [15], in assay [16], in assay [17] and in [18] was > 100 µM (inactive) in each case. Also, the GI50 in [19] and in assay [20] was > 100 µM (inactive) in each case.
